Data published in patent US20100331315A1, “RHODANINES AND RELATED HETEROCYCLES AS KINASE INHIBITORS” (priority 2009, published 2010).
Where two headings read alike, the source gives them in different places. One block for each compound: values may come before it.

How the values were obtained:
recombinant human CK2 = target: T1, recombinant human CK2 (Homo sapiens, UniProt P68400); test: CK2 assay (cell-free, 33P-ATP filter plate); assay type: biochemical
T1 construct: purchased Upstate
Procedure: Modulatory activity of compounds described herein was assessed in vitro in cell-free CK2 assays by the following method.
Test compounds in aqueous solution were added at a volume of 10 microliters, to a reaction mixture comprising 10 microliters Assay Dilution Buffer (ADB; 20 mM MOPS, pH 7.2, 25 mM beta-glycerolphosphate, 5 mM EGTA, 1 mM sodium orthovanadate and 1 mM dithiothreitol), 10 microliters of substrate peptide (RRRDDDSDDD, dissolved in ADB at a concentration of 1 mM), 10 microliters of recombinant human CK2 (25 ng dissolved in ADB; Upstate). Reactions were initiated by the addition of 10 microliters of ATP Solution (90% 75 mM MgCl2, 75 micromolar ATP dissolved in ADB; 10% [γ-^33P]ATP (stock 1 mCi/100 μl; 3000 Ci/mmol (Perkin Elmer) and maintained for 10 minutes at 30 degrees C. The reactions were quenched with 100 microliters of 0.75% phosphoric acid, then transferred to and filtered through a phosphocellulose filter plate (Millipore). After washing each well 5 times with 0.75% phosphoric acid, the plate was dried under vacuum for 5 min and, following the addition of 15 ul of scintillation fluid to each well, the residual radioactivity was measured using a Wallac luminescence counter.

MV-4-11 = test: Alamar Blue cell proliferation assay, MV-4-11; assay type: cell-based; settings: Homo sapiens, MV4-11, MV-4-11, Table 1, read-out: AB: MV-4-11 IC50
Procedure: (§1) A representative cell-proliferation assay protocol using Alamar Blue dye (stored at 4° C., use 20 ul per well) is described hereafter.
(§2) a. Split and trypsinize cells.
(§3) b. Count cells using hemocytometer.
(§4) c. Plate 4,000-5,000 cells per well in 100 μl of medium and seed into a 96-well plate according to the following plate layout. Add cell culture medium only to wells B10 to B12. Wells B1 to B9 have cells but no compound added.
(§5) d. Add 100 μl of 2× drug dilution to each well in a concentration shown in the plate layout above. At the same time, add 100 μl of media into the control wells (wells B10 to B12). Total volume is 200 μl/well.
(§6) e. Incubate four (4) days at 37° C., 5% CO2 in a humidified incubator.
(§7) f. Add 20 μl Alamar Blue reagent to each well.
(§8) g. Incubate for four (4) hours at 37° C., 5% CO2 in a humidified incubator.
(§9) h. Record fluorescence at an excitation wavelength of 544 nm and emission wavelength of 590 nm using a microplate reader.
(§10) In the assays, cells are cultured with a test compound for approximately four days, the dye is then added to the cells and fluorescence of […] dye is detected after approximately four hours. Different types of cells can be utilized in the assays (e.g., HCT-116 human colorectal carcinoma cells, PC-3 human prostatic cancer cells and MiaPaca human pancreatic carcinoma cells).

MDAMB231 = test: Alamar Blue cell proliferation assay, MDAMB231; assay type: cell-based; settings: Homo sapiens, MDA-MB-231, MDAMB231, Table 1, read-out: AB: MDAMB231 IC50
Procedure: as §1, §2, §3, §4, §5, §6, §7, §8, §9, §10

[1] = system: MiaPaca human pancreatic carcinoma cells; test: Alamar Blue cell proliferation assay, MiaPaCa; assay type: cell-based; settings: MIA PaCa-2, Table 1, read-out: AB: MiaPaCa IC50
Procedure: as §1, §2, §3, §4, §5, §6, §7, §8, §9, §10

recombinant PIM-1 = recombinant PIM-1 (Homo sapiens, UniProt P11309); test: PIM-1 assay (33P-ATP filter plate); assay type: biochemical; settings: read-out: PIM1: IC50
Sequence of recombinant PIM-1 (P11309 whole entry): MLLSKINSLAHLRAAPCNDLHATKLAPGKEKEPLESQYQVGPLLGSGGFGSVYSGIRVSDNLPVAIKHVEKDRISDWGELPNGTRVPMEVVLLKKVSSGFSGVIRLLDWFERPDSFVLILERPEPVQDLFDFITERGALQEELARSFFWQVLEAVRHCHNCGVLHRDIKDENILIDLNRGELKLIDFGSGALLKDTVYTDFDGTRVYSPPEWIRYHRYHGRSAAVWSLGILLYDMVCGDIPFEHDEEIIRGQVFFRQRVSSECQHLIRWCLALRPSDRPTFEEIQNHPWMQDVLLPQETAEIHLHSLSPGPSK
Procedure: The following procedure was used to assay the PIM-1 kinase activity of compounds of the invention. Other methods for assaying PIM-1 and other PIM kinases, as well as methods to assay for activity against the various kinases are known in the art.
In a final reaction volume of 50 ul, recombinant PIM-1 (1 ng) was incubated with 12 mM MOPS pH 7.0, 0.4 mM EDTA, glycerol 1%, brij 35 0.002%, 2-mercaptoethanol 0.02%, BSA 0.2 mg/ml, 100 uM KKRNRTLTK, 10 mM MgAcetate, 15 uM ATP, [γ-^33P-ATP] (specific activity approx. 500 cpm/pmol), DMSO 4% and test inhibitor compound at the required concentration. The reaction was initiated by the addition of the Magnesium ATP mixture. After 40 min incubation at 23° C., the reactions were quenched by the addition of 100 ul 0.75% Phosphoric acid, and the labeled peptide collected by filtration through a phosphocellulose filter plate. The plate was washed 4 times with 0.075% phosphoric acid (100 ul per well) and then, after the addition of scintillation fluid (20 ul per well), the counts were measured by a scintillation counter.

K-562 = test: Alamar Blue cell proliferation assay, K-562; assay type: cell-based; settings: Homo sapiens
Procedure: as §1, §2, §3, §4, §5, §6, §7, §8, §9, §10

[2] = system: PC-3 human prostatic cancer cells; test: Alamar Blue cell proliferation assay, PC3; assay type: cell-based
Procedure: as §1, §2, §3, §4, §5, §6, §7, §8, §9, §10

[3] = PC3, Table 4, read-out: AB: PC3 IC50
[4] = K562, K-562, Table 4, read-out: AB: K-562 IC50

T1 sequence (P68400 whole entry): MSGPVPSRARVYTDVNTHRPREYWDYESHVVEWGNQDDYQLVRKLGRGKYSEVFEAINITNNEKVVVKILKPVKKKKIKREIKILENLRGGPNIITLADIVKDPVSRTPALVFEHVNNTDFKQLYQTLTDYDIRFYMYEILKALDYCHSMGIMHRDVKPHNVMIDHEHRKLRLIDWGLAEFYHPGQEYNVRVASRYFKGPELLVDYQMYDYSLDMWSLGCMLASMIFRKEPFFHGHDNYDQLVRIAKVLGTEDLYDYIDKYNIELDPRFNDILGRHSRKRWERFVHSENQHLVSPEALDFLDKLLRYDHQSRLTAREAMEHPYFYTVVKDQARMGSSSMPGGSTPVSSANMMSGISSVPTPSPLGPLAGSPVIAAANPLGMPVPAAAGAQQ
T1 sequence (P67870 whole entry partner): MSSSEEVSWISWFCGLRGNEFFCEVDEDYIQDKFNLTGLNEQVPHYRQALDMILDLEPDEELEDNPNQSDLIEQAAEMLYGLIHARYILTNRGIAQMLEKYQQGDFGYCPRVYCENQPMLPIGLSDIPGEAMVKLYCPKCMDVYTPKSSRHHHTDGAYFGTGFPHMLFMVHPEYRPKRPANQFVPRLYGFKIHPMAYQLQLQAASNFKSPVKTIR

SMILES: COC(=O)c1cccc(-c2ccc(CC3SC(=S)NC3=O)o2)c1 (stereo not shown)
IC50 (recombinant human CK2; Table 1): 3 nM | IC50 (MV-4-11): > 10 µM | IC50 (MDAMB231): > 10 µM | IC50 [1]: > 10 µM | IC50 (recombinant PIM-1; Table 1): 6 nM | IC50 (K-562; K562, K-562, Table 1, read-out: AB: K-562 IC50): > 10000 nM

SMILES: CN1CCCN(C(=O)c2ccccc2-c2ccc(/C=C3\SC(=S)NC3=O)o2)CC1
IC50 (recombinant human CK2; Table 1): > 5000 nM | IC50 (recombinant PIM-1; Table 1): 1300 nM

SMILES: O=C1NC(=O)/C(=C\c2ccc(-c3cccc(C(=O)O)c3)o2)N1
IC50 (recombinant human CK2; Table 3): 2060 nM | IC50 (recombinant PIM-1; Table 3): > 5000 nM

SMILES: CN1C(=O)NC(=O)/C1=C\c1ccc(-c2cccc(C(=O)O)c2)o1
IC50 (recombinant human CK2; Table 3): 1460 nM | IC50 (recombinant PIM-1; Table 3): > 5000 nM

SMILES: CN1CCCN(C(=O)c2cccc(-c3ccc(/C=C4\C(=O)NC(=O)N4C)o3)c2)CC1
IC50 (recombinant human CK2; Table 3): 1820 nM | IC50 (recombinant PIM-1; Table 3): > 5000 nM

SMILES: CN1CCCN(C(=O)c2cccc(-c3ccc(/C=C4/NC(=O)NC4=O)o3)c2)CC1
IC50 (recombinant human CK2; Table 3): > 5000 nM | IC50 (recombinant PIM-1; Table 3): > 5000 nM

SMILES: CN1CCCN(c2cncc(-c3cccc(/C=C4\SC(=O)NC4=O)c3)n2)CC1
IC50 (recombinant human CK2; Table 4): 3 nM | IC50 [2, 3]: 9.49 µM | IC50 (recombinant PIM-1; Table 4): 1 nM | IC50 (K-562; [4]): 76 nM

SMILES: CN1CCCN(c2cncc(-c3ccc(/C=C4\SC(=O)NC4=O)o3)n2)CC1
IC50 (recombinant human CK2; Table 4): 6 nM | IC50 [2, 3]: > 10 µM | IC50 (recombinant PIM-1; Table 4): 22 nM | IC50 (K-562; [4]): 146 nM

SMILES: CN1CCCN(c2cncc(-c3ccc(/C=C4\NC(=O)NC4=O)o3)n2)CC1
IC50 (recombinant human CK2; Table 4): 229 nM | IC50 (recombinant PIM-1; Table 4): 1850 nM

SMILES: CN1CCCN(c2cncc(-c3cccc(/C=C4\SC(=S)NC4=O)c3)n2)CC1
IC50 (recombinant human CK2; Table 4): 1 nM | IC50 [2, 3]: 3.46 µM | IC50 (recombinant PIM-1; Table 4): < 1 nM | IC50 (K-562; [4]): < 30 nM

SMILES: CN1CCCN(c2cncc(-c3ccc(/C=C4\SC(=S)NC4=O)o3)n2)CC1
IC50 (recombinant human CK2; Table 4): 18 nM | IC50 [2, 3]: > 10 µM | IC50 (recombinant PIM-1; Table 4): 141 nM

Further lines, results first:

IC50 (recombinant human CK2; Table 1): 3790 nM | IC50 (recombinant PIM-1; Table 1): 4330 nM
SMILES: O=C1NC(=S)S/C1=C\c1ccc(-c2ccccc2C(=O)O)o1

IC50 (recombinant human CK2; Table 1): 9 nM | IC50 ([2]; PC-3, PC3, Table 1, read-out: AB: PC3): > 10 µM | IC50 (recombinant PIM-1; Table 1): 15 nM
SMILES: NS(=O)(=O)c1ccc(-c2ccc(/C=C3\SC(=S)NC3=O)o2)cc1

IC50 (recombinant human CK2; Table 2): 117 nM | IC50 (recombinant PIM-1; Table 2): > 5000 nM
SMILES: O=C1NC(=O)/C(=C/c2ccc(-c3cccc(C(=O)O)c3)o2)S1

IC50 (recombinant human CK2; Table 2): 35 nM | IC50 ([2]; PC3, Table 2, read-out: AB: PC3 IC50): > 10 µM | IC50 (recombinant PIM-1; Table 2): 51 nM
SMILES: NS(=O)(=O)c1ccc(-c2ccc(/C=C3\SC(=O)NC3=O)o2)cc1

IC50 (recombinant human CK2; Table 3): 216 nM | IC50 (recombinant PIM-1; Table 3): 829 nM
SMILES: CN1C(=O)NC(=O)/C1=C\c1ccc(-c2ccc(C(=O)O)cc2)o1

IC50 (recombinant human CK2; Table 3): 166 nM | IC50 (recombinant PIM-1; Table 3): 805 nM
SMILES: O=C1NC(=O)/C(=C\c2ccc(-c3ccc(C(=O)O)cc3)o2)N1

IC50 (recombinant human CK2; Table 3): 458 nM | IC50 (recombinant PIM-1; Table 3): 276 nM
SMILES: NS(=O)(=O)c1ccc(-c2ccc(/C=C3\NC(=O)NC3=O)o2)cc1
